Tests used:
[1] = tested on: human umbilical vein endothelial cells (HUVEC); test: human endothelial cell growth assay (Huvec assay); assay type: cell-based; details: Homo sapiens, HUVEC; read-out: IC50 (pM), Huvec Assay
Method: For the human endothelial cell growth assay, human umbilical vein endothelial cells (HUVEC) were maintained in Clonetics endothelial growth medium (EGM) in a 37° C. humidified incubator. Cells were detached with trypsin and pelleted by centrifugation at 300×g for 5 minutes at room temperature. HUVEC were added to 96-well plates at 5,000 cells/well. After incubating for 6 hours, the medium was replaced with 0.2 ml fresh EGM supplemented with 0.5 nM bFGF and the desired concentration of test angiogenesis inhibitor compound. Test angiogenesis inhibitor compounds were initially dissolved in ethanol at stock concentrations of either 10 mM or 0.1 mM, and subsequently diluted in EGM to obtain concentrations from […] to 10 μM. After 48 hours at 37° C., the medium was replaced with fresh bFGF-supplemented EGM and test angiogenesis inhibitor compound. Following incubation for an additional 48 hours at 37° C. MTT (3-[4,5-dimethylthiazol-2-yl]-2,5-diphenyl-tetrazolium bromide) was added to 1 mg/ml. After 2-4 hours at 37° C. the medium was replaced with 0.1 ml/well isopropanol. The plates were placed on a shaker for 15 minutes at room temperature and analyzed in a Labsystems Multiskan plate spectrophotometer at an optical density of 570 nm.

[2] = tested on: bovine aortic endothelial cell; test: bovine aortic endothelial cell growth assay (Baec assay); assay type: cell-based; details: Bos taurus, BAEC; read-out: IC50 (pM), Baec Assay
Method: The angiogenesis inhibitor compounds of the invention were tested for their ability to modulate human endothelial cell growth and for their ability to modulate the activity of MetAP2. The MetAP2 enzyme assay was performed essentially as described in Turk, B. et al. (1999) Chem. & Bio. 6: 823-833, the entire contents of which are incorporated herein by reference. The bovine aortic endothelial cell growth assay (Baec assay) was performed essentially as described in Turk, B. et al. (supra), the entire contents of which are incorporated herein by reference.

SU-DHL-16 = test: Inhibition of GC derived B cell lymphoma lines in culture; assay type: cell-based; details: Homo sapiens, SU-DHL-16, 120 h, read-out: Growth Inhibition Relative to Vehicle Control, GI50%
Pfeiffer = test: as above; assay type: cell-based
D10 = test: as above; assay type: cell-based; details: D10, FL
H2 = test: as above; assay type: cell-based
Ramos = test: as above; assay type: cell-based; details: Burkitt's lymphoma cell line, 0.01-100 nM
ST486 = test: as above; assay type: cell-based
[3] = tested on: human lymphoblast SR cells; test: Inhibition of SR cell line in culture, 3H-thymidine incorporation assay; assay type: cell-based
Method: […] Incubations were conducted for 3, 5 or 6 days after which cell proliferation relative to vehicle treatment was determined using a ^3H-thymidine incorporation assay. Medium was replaced and fresh drug was added on day 3 for the 5 and 6 day assays.

SR lymphoma tumor = test: In vivo efficacy in SR lymphoma cell tumors grown in mice
Method: SR lymphoma tumor cells were injected subcutaneously into SCID/NCr female mice. Tumors were measured using a caliper every 3-4 days beginning on day 12 post-implantation of tumor cells. Animals were weighed routinely on the same days as tumor measurments and monitored for clinical signs of any adverse, drug-related side effects. Treatment with Compound 5 or vehicle began on Day 12 for 5 weeks and ended on Day 44. The endpoints evaluated were optimal percent treated/control (% T/C) and tumor growth delay measured at multiple timepoints during the study.

`CO[C@@H]1[C@H](OC(=O)N[C@@H](C(N)=O)C(C)C)CC[C@]2(CO2)[C@H]1[C@@]1(C)O[C@@H]1CC=C(C)C` [Example 5, (1-Carbamoyl-2-methyl-propyl)-carbamic acid-(3R, 4S, 5S, 6R )-5-methoxy-4-[(2R, 3R)-2-methyl-3-(3-methyl-but-2-enyl)-oxiranyl]-1-oxa-spiro[2.5]oct-6-yl ester] showed an IC50 [1] of 93 pM, an IC50 [2] of 46 pM and a GI50 (SU-DHL-16) of 1.9 nM. For the same compound, the “Growth Inhibition Relative to Vehicle Control, Maximum Inhibition” value (Pfeiffer; DLBCL, 0.01-100 nM, five or six days) was 54%, the GI50 (Pfeiffer; Homo sapiens, read-out: Growth Inhibition Relative to Vehicle Control, GI50%) was 0.27 nM and the GI50 (D10; B-cell, estimated, read-out: Growth Inhibition Relative to Vehicle Control, GI50%) was 0.42 nM. The “Growth Inhibition Relative to Vehicle Control, Maximum Inhibition” value (D10; 0.01-100 nM, five or six days) was 59%, the GI50 (H2; B-cell, read-out: Growth Inhibition Relative to Vehicle Control, GI50%) was 0.16 nM and the “Growth Inhibition Relative to Vehicle Control, Maximum Inhibition” value (H2; H2, FL, 0.01-100 nM, five or six days) was 59%. The “inhibition of proliferation (in words)” value (Ramos) was “inhibited the proliferation of all lymphoma lines tested except for the Ramos line”, the GI50 (ST486; Homo sapiens, ST486, read-out: Growth Inhibition Relative to Vehicle Control, GI50%) was 0.22 nM and the “Growth Inhibition Relative to Vehicle Control, Maximum Inhibition” value (ST486; ST486, BL, 0.01-100 nM, five or six days) was 53%. For the same compound, the GI50 ([3]; Homo sapiens, SR, 5 and 6 day assays) was 0.5 nM, the “inhibition of proliferation of the SR cell line” value ([3]; concentrations from 1-100 nM, relative to vehicle) was 59-75% and the Maximal inhibition ([3]; five or six days of exposure) was “greater than 90%”. For the same compound, the “optimal % T/C” value (SR lymphoma tumor; oral route, 15 mg/kg) was 48%, the “optimal % T/C” value (SR lymphoma tumor; oral route, 30 mg/kg) was 43% and the tumor growth delay (SR lymphoma tumor; orally, 15 mg/kg) was 29%. It also gave a tumor growth delay (SR lymphoma tumor; orally, 30 mg/kg) of 28%, a tumor growth delay (SR lymphoma tumor; subcutaneous route, 15 mg/kg) of 18% and a tumor growth delay (SR lymphoma tumor; subcutaneous route, 30 mg/kg) of 19%. The “optimal % T/C” value (SR lymphoma tumor; subcutaneously, 15 mg/kg) was 70% and the “optimal % T/C” value (SR lymphoma tumor; subcutaneously, 30 mg/kg) was 50%.
